# Where two headings read alike, the source gives them in different places.
# Columns and labels:
# [1] = target: T1, A2A-adenosine receptor human recombinant (Homo sapiens, UniProt P29274); assay: Radioligand binding assay 1, human recombinant A2A adenosine receptor
# T1 construct: expressed in transfected cells
# Experimental: (§1) Rat brain preparations were used for A1- and A2A adenosine receptor (AR) and human recombinant cell samples for A1-, A2A- and A3 adenosine receptor radioligand binding studies. Affinity and selectivity was tested in displacement experiments with following radioligands: [^3H]CCPA for A1-adenosine receptors, [^3H]MSX-2 for A2A-receptors and [^3H]PSB-11 for A3-receptors. Results of these experiments are depicted in table 2b (human data) and table 2a (rat data). Radioligand binding test systems are e.g. generally described by Muller et al., Curr. Pharm. Des., 1996, 2, 501 and Weyler et al., ChemMedChem 2006, 1, 891 and references cited therein) These documents are incorporated herein by reference.
# [2] = target: T2, A1-adenosine receptor human recombinant (Homo sapiens, UniProt P30542); assay: Radioligand binding assay 1, human recombinant A1 adenosine receptor; settings: [3H]CCPA
# T2 construct: expressed in transfected cells
# T2 sequence (P30542 1-326): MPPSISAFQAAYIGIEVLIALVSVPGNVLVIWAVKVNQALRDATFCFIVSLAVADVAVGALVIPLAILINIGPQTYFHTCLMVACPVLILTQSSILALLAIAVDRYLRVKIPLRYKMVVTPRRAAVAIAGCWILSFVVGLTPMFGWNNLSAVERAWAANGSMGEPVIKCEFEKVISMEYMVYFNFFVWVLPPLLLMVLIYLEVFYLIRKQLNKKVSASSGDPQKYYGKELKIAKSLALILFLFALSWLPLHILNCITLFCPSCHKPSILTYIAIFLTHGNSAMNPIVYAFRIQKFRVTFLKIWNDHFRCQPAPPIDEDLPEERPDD
# Experimental: as §1
# Rat A2A AR = target: T3, Rat A2A AR (Rattus norvegicus, UniProt P30543); assay: Radioligand binding assay 1, rat A2A adenosine receptor; settings: rat striatum, [3H]MSX-2
# T3 construct: A2A adenosine receptors from rat striatum; from tissue; host or cells: rat striatum
# Experimental: as §1
# Rat A1 AR = target: T4, Rat A1 AR (Rattus norvegicus, UniProt P25099); assay: Radioligand binding assay 1, rat A1 adenosine receptor; settings: rat cortex, [3H]CCPA
# T4 construct: Rat brain preparations were used for A1- and A2A adenosine receptor (AR); from tissue; host or cells: rat cortex
# T4 sequence (P25099 1-326): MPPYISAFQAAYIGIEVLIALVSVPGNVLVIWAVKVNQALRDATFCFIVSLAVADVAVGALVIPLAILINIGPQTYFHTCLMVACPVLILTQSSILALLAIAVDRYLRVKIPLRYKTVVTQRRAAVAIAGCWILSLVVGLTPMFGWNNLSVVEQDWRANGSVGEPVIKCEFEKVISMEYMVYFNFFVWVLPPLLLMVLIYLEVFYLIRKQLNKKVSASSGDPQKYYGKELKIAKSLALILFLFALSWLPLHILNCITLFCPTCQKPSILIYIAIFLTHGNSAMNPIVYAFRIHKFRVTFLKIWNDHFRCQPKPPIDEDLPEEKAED
# Experimental: as §1
# [3] = human recombinant, [3H]MSX-2, read-out: A2A-adenosine receptor human recombinant [3H] MSX-2 Ki
# T1 sequence (P29274 whole entry): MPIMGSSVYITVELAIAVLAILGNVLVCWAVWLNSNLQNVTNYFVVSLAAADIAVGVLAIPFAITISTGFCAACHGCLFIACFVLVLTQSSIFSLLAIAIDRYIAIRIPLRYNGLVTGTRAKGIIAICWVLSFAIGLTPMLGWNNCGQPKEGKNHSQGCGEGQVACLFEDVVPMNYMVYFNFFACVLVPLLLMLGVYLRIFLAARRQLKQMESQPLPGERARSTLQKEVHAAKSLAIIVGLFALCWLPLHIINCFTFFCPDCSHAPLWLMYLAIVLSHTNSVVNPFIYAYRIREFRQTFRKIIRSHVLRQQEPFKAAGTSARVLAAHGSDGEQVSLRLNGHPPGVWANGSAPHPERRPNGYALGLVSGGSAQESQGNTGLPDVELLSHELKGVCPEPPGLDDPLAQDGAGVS
# T3 sequence (P30543 whole entry): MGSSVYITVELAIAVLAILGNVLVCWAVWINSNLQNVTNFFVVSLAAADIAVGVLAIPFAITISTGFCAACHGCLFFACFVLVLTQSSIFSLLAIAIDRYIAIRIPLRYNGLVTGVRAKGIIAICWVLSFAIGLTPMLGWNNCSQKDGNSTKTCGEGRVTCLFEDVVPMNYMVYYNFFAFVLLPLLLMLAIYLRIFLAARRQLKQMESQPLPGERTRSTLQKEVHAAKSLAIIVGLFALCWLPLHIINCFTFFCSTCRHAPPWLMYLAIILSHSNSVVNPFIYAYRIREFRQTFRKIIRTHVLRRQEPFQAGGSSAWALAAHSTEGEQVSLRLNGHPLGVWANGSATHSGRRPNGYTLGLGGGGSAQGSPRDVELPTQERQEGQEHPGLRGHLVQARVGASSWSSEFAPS
SMILES,"Ki [1, 3] [nM]",Ki [2] [nM],"Ki ([1]; no full inhibition curve due to limited water-solubility, read-out: A2A-adenosine receptor human recombinant [3H] MSX-2 Ki, calculated by extrapolation) [nM]",Ki (Rat A2A AR) [nM],Ki (Rat A1 AR) [nM]
C#CCn1c(=O)c2c(nc(C#Cc3ccc(OC)c(OC)c3)n2C)n(CC2CC2)c1=O [drawing 590],56.3 ± 26.4,> 1000,,,
C#CCn1c(=O)c2c(nc(C#Cc3ccc(OC)c(OC)c3)n2C)n(C(C)C(C)=O)c1=O (stereo not shown) [drawing 591],54,,,,
C#CCn1c(=O)c2c(nc(C#Cc3cccc(OC)c3)n2C)n(CCN(C)C)c1=O [drawing 594],569 ± 10.7,,,,
C#CCn1c(=O)c2c(nc(C#Cc3cccc(OC)c3)n2C)n(CC(O)CO)c1=O (stereo not shown) [drawing 492],,,,69.8 ± 17.1,> 1000
C#CCn1c(=O)c2c(nc(C#Cc3cccc(OC)c3)n2CC#N)n(C)c1=O,,,,56.2 ± 12.9,> 1000
C#CCn1c(=O)c2c(nc(C#Cc3cccc(OC)c3)n2C)n(CC)c1=O [drawing 485],,,,49.9 ± 9.7,> 10000
C#CCn1c(=O)c2c(nc(C#Cc3cccc(OCC)c3)n2C)n(C)c1=O,,,,174 ± 42,~10000
C#CCn1c(=O)c2c(nc(C#Cc3ccc(OCC)c(OCC)c3)n2C)n(CC)c1=O [drawing 497],,,,166 ± 50,> 1000
C#CCn1c(=O)c2c(nc(C#Cc3ccc(OC)c(OC)c3)n2C)n(Cc2cnc[nH]2)c1=O [drawing 527],,,,28.8 ± 4.1,> 1000
C#CCn1c(=O)c2c(nc(C#Cc3ccc(OC)c(OC)c3)n2C)n(CC(=C)C)c1=O,,,,28.6 ± 9.7,> 1000
C#CCn1c(=O)c2c(nc(C#Cc3cccc(OC)c3)n2C)n(CCCO)c1=O [drawing 484],,,,11.8 ± 1.6,142 ± 8
C#CCn1c(=O)c2c(nc(C#Cc3cccc(C)c3)n2C)n(CCCO)c1=O [drawing 534],,,,47 ± 2,467 ± 6
C#CCn1c(=O)c2c(nc(C#Cc3ccc(OC)c(OC)c3)n2C)n(CC(C)C)c1=O [drawing 517],,,,5.54 ± 1.3,≥ 1000
C#CCn1c(=O)c2c(nc(C#Cc3cncn3C)n2C)n(CC)c1=O [drawing 600],82.1 ± 26,,,,
C#CCn1c(=O)c2c(nc(C#Cc3ccc(OC)c(OC)c3)n2C)n(CC(=O)O)c1=O,,,,272 ± 57,> 1000
C#CCn1c(=O)c2c(nc(C#Cc3cccc(OC)c3)n2CC#CC)n(C)c1=O,,,,36.2 ± 4.5,96 ± 16.4
C#CCn1c(=O)c2c(nc(C#Cc3ccc(OC)c(OC)c3)n2C)n(CCCOP(=O)(O)O)c1=O [drawing 570],50.7 ± 21.2,,,,
C#CCn1c(=O)c2c(nc(C#Cc3cccc(OC)c3)n2C)n(CCC2OCCO2)c1=O,,,,120 ± 18,≥ 1000
C#CCn1c(=O)c2c(nc(C#Cc3ccc(C)cc3)n2C)n(C)c1=O,,,,151 ± 8.4,> 10000
C#CCn1c(=O)c2c(nc(C#Cc3cc(C)c(C)cc3C)n2C)n(C)c1=O,,,,4340 ± 840,> 10000
C#CCn1c(=O)c2c(nc(C#Cc3ccc(OC)c(F)c3)n2C)n(C)c1=O,,,,194 ± 39,> 1000
C#CCn1c(=O)c2c(nc(C#Cc3ccc(OC)c(OC)c3)n2C)n(CCC(=O)CC)c1=O,,,,103 ± 15,111 ± 26
C#CCn1c(=O)c2c(nc(C#Cc3cccc(OC)c3)n2C)n(CCBr)c1=O,,,,90 ± 25,> 1000
C#CCn1c(=O)c2c(nc(C#Cc3cccc(OCCCO)c3)n2C)n(C)c1=O [drawing 596],299 ± 72,,,,
C#CCn1c(=O)c2c(nc(C#Cc3ccc4c(c3)OCO4)n2C)n(C)c1=O [drawing 561],52.3 ± 13.4,,,,
C#CCn1c(=O)c2c(nc(C#Cc3ccc(F)c(OC)c3)n2C)n(C)c1=O,,,,70.3 ± 5.39,> 1000
C#CCn1c(=O)[nH]c2nc(C#Cc3ccc(OC)c(OC)c3)n(C)c2c1=O [drawing 483],,,,15 ± 2,≥ 10000

# Second part, the compound after the results:
"Ki [1, 3] [nM]",Ki [2] [nM],"Ki ([1]; no full inhibition curve due to limited water-solubility, read-out: A2A-adenosine receptor human recombinant [3H] MSX-2 Ki, calculated by extrapolation) [nM]",Ki (Rat A2A AR) [nM],Ki (Rat A1 AR) [nM],SMILES
127 ± 19,> 1000,,,,C#CCn1c(=O)c2c(nc(C#Cc3ccc(OC)c(OC)c3)n2C)n(C(C)C)c1=O [drawing 586]
35.6 ± 10.9,,,,,C#CCn1c(=O)c2c(nc(C#Cc3cccc(OC)c3)n2C)n(CC=C)c1=O [drawing 571]
82.5,,,,,C#CCn1c(=O)c2c(nc(C#Cc3ccsc3)n2C)n(CC)c1=O [drawing 599]
,,314 ± 71,,,C#CCn1c(=O)c2c(nc(C#Cc3ccccc3)n2C)n(C)c1=O [drawing 552]
96.3 ± 3.1,,,,,C#CCn1c(=O)c2c(nc(C#Cc3ccc(OC)c(OC)c3)n2C)n(CCC2CO2)c1=O (stereo not shown) [drawing 580]
,,,41.8 ± 4.3,> 1000,C#CCn1c(=O)c2c(nc(C#Cc3cccc(OC)c3)n2C)n(CC=C)c1=O [drawing 490]
,,,103 ± 21,> 1000,C#CCn1c(=O)c2c(nc(C#Cc3ccc(OC)c(OC)c3)n2C)n(Cc2cccs2)c1=O [drawing 520]
,,,32.7 ± 6.1,> 10000,C#CCn1c(=O)c2c(nc(C#Cc3ccc(OC)c(OC)c3)n2C)n(C)c1=O [drawing 458]
,,,123 ± 38,> 10000,C#CCn1c(=O)c2c(nc(C#Cc3ccc(OC)cc3)n2C)n(C)c1=O
,,,46 ± 9,> 10000,C#CCn1c(=O)c2c(nc(C#Cc3cccc(Cl)c3)n2C)n(C)c1=O [drawing 461]
,,,186 ± 60,> 1000,C#CCn1c(=O)c2c(nc(C#Cc3ccccc3)n2C)n(C)c1=O [drawing 452]
,,,119 ± 26,460 ± 61,C#CCn1c(=O)c2c(nc(C#Cc3cncn3C)n2C)n(CC)c1=O [drawing 511]
,,,9.99 ± 0.7,≥ 1000,C#CCn1c(=O)c2c(nc(C#Cc3ccc(OC)c(OC)c3)n2C)n(CCF)c1=O [drawing 518]
,,,36.5 ± 6.1,286 ± 11,C#CCn1c(=O)c2c(nc(C#Cc3ccc(OC)c(OC)c3)n2C)n(CC(=O)OC)c1=O [drawing 546]
,,,> 1000,> 1000,C#Cn1c(=O)c2c(nc(C#Cc3ccc(Cl)c(Cl)c3)n2C)n(C)c1=O
,,,161 ± 35,> 1000,C#CCn1c(=O)c2c(nc(C#Cc3cccc(OC)c3)n2C)n(CCN(C)C)c1=O [drawing 536]
,,,9.5 ± 1.6,> 1000,C#CCn1c(=O)c2c(nc(C#Cc3ccc(OC)c(OC)c3)n2C)n(CC=C)c1=O

"Ki [1, 3] [nM]",Ki [2] [nM],"Ki ([1]; no full inhibition curve due to limited water-solubility, read-out: A2A-adenosine receptor human recombinant [3H] MSX-2 Ki, calculated by extrapolation) [nM]",Ki (Rat A2A AR) [nM],Ki (Rat A1 AR) [nM],SMILES
273,,,,,C#CCn1c(=O)c2c(nc(C#Cc3ccc(OC)c(OC)c3)n2C)n(CC(C)=O)c1=O [drawing 592]
,,,43.1 ± 13.2,> 1000,C#CCn1c(=O)c2c(nc(C#Cc3ccc(F)c(OC)c3)n2C)n(CC)c1=O [drawing 519]
,,,43.4 ± 11.6,> 10000,C#CCn1c(=O)c2c(nc(C#Cc3cccc(C)c3)n2C)n(C)c1=O [drawing 460]
,,,40 ± 1,186 ± 3,C#CCn1c(=O)c2c(nc(C#Cc3cccc(OCCCN(C)C)c3)n2C)n(C)c1=O [drawing 470]
,,,16 ± 6,157 ± 12,C#CCn1c(=O)c2c(nc(C#Cc3ccc(OC)c(OC)c3)n2C)n(C(C)C(C)=O)c1=O (stereo not shown) [drawing 524]
,,,30.1 ± 5.4,337 ± 67,C#CCn1c(=O)c2c(nc(C#Cc3ccc(OC)c(OC)c3)n2C)n(CCCO)c1=O [drawing 533]
,,,90.7 ± 11.2,1250 ± 106,CCn1c(=O)n(Cc2ccoc2)c(=O)c2c1nc(C#Cc1ccc(OC)c(OC)c1)n2C
,,,76.4 ± 32.9,> 1000,C#CCn1c(=O)c2c(nc(C#Cc3ccc(OC)c(OC)c3)n2C)n(CCC#N)c1=O [drawing 501]
,,,34.9 ± 6.9,176 ± 59,C#CCn1c(=O)c2c(nc(C#Cc3ccc(OC)c(OC)c3)n2C)n(CCC=C)c1=O
,,,24.2 ± 3.8,234 ± 47,C#CCn1c(=O)c2c(nc(C#Cc3ccc(OC)c(OC)c3)n2C)n(CCC(F)(F)F)c1=O
165 ± 14,,,,,C#CCn1c(=O)c2c(nc(C#Cc3cccc(OC)c3)n2C)n(CCO)c1=O [drawing 572]
,,,951 ± 224,> 1000,C#CCn1c(=O)c2c(nc(C#Cc3ccc(OCC)c(OCC)c3)n2C)n(C)c1=O
89.7 ± 16.1,,,,,C#CCn1c(=O)c2c(nc(C#Cc3ccc(OC)c(OC)c3)n2C)n(C)c1=O [drawing 601]
,,,118 ± 19,≥ 1000,C#CCn1c(=O)c2c(nc(C#Cc3ccc(OC)c(OC)c3)n2C)n(C(C)C)c1=O [drawing 516]
,,,466 ± 36,> 10000,C#CCn1c(=O)c2c(nc(C#Cc3cccc(F)c3)n2C)n(C)c1=O
,,,49 ± 5,194 ± 33,C#CCn1c(=O)c2c(nc(C#Cc3cccc(OCCN(C)C)c3)n2C)n(C)c1=O [drawing 473]
,,,90.9 ± 7,208 ± 54,CCn1c(=O)n(Cc2ccco2)c(=O)c2c1nc(C#Cc1ccc(OC)c(OC)c1)n2C
